Assay [1] has as its system Heme. Kind of assay: Inhibition of heme-mediated bovine serum albumin oxidation assessed as protein carbonyl formation after 1 hr in presence of H2O2 at pH 7.4.
In assay [2] the test system is Heme. Kind of assay: Binding affinity to heme assessed as equilibrium binding constant by UV-visible spectrophotometry.
The subject of assay [3] is Heme. Kind of assay: Inhibition of heme-mediated bovine serum albumin degradation at 100 uM after 1 hr by gel electrophoresis in presence of H2O2 at pH 7.4.

The source made the active and inactive calls. The rule behind the calls is not given here.

Turning to `O=C(O)c1cccc2c(=O)c3ccccc3[nH]c12`, the IC50 in the assay with Heme [1] was determined as 43 µM. The Ka with Heme [2] stood at 3.8 ×10⁴ /M.

With `O=c1c2ccccc2[nH]c2ccccc12` [ACRIDONE], the IC50 in the assay on Heme [1] amounted to 55 µM. The Ka with Heme [2] was 2.4 ×10⁴ /M.

`COc1ccc2[nH]c3ccccc3c(=O)c2c1`: the IC50 in the assay on Heme [1] stood at 44 µM. In the assay on Heme [2], the Ka was determined as 2.7 ×10⁴ /M.

For `O=c1c2ccccc2[nH]c2cc([N+](=O)[O-])ccc12`, the concentration for half-maximal inhibition (IC50) with Heme [1] was 41 µM. In addition, the inhibition entry in the assay on Heme [3] was “Active”. For the same compound, the Ka in the assay on Heme [2] stood at 4.3 ×10⁴ /M.

With `O=c1c2ccccc2[nH]c2cc(Cl)ccc12`, the IC50 in the assay on Heme [1] was 36 µM. For the same compound, the inhibition entry with Heme [3] was “Active”. Besides, in the assay on Heme [2], the Ka is 4.6 ×10⁴ /M.

As to `COc1cc2c(c(O)c1OC)c(=O)c1ccccc1n2C` [ARBORININE], the IC50 in the assay on Heme [1] was 42 µM. Further, the inhibition entry in the assay with Heme [3] was “Active”. Moreover, in the assay with Heme [2], the Ka is 3.9 ×10⁴ /M.

For the origin of these results see ChEMBL document CHEMBL1799952, “Synthesis of novel heme-interacting acridone derivatives to prevent free heme-mediated protein oxidation and degradation” (Bioorg Med Chem Lett, 2011).
